Columns and labels:
[1] = system: CHEAL = lambsquarter (Chenopodium album); assay: General postemergence herbicidal activity, lambsquarter; assay type: in vivo; conditions: post-emergent, 140 g ai/ha, visual score after 14 days (0 no injury, 100 complete kill); for pest or weed control at 140 g/ha: Chenopodium album, post-emergence, 336 h
Method: (§1) Seeds or nutlets of the desired test plant species were planted in Sun Gro MetroMix® 306 planting mixture, which typically has a pH of 6.0 to 6.8 and an organic matter content of about 30 percent, in plastic pots with a surface area of 64 square centimeters. When required to ensure good germination and healthy plants, a fungicide treatment and/or other chemical or physical treatment was applied. The plants were grown for 7-21 days in a greenhouse with an approximate 15 hour photoperiod which was maintained at about 23-29° C. during the day and 22-28° C. during the night. Nutrients and water were added on a regular basis and supplemental lighting was provided with overhead metal halide 1000-Watt lamps as necessary. The plants were employed for testing when they reached the first or second true leaf stage.
(§2) A weighed amount, determined by the highest rate to be tested, of each test compound was placed in a 25 mL glass vial and was dissolved in 4 mL of a 97:3 v/v (volume/volume) mixture of acetone and dimethyl sulfoxide (DMSO) to obtain concentrated stock solutions. […] The concentrated stock solutions obtained were diluted with 20 mL of an aqueous mixture containing acetone, water, isopropyl alcohol, DMSO, Atplus 411F crop oil concentrate, and Triton X-155 surfactant in a 48.5:39:10:1.5:1.0:0.02 v/v ratio to obtain spray solutions containing the highest application rates. Additional application rates were obtained by serial dilution of 12 mL of the high rate solution into a solution containing 2 mL of 97:3 v/v (volume/volume) mixture of acetone and dimethyl sulfoxide (DMSO) and 10 mL of an aqueous mixture containing acetone, water, isopropyl alcohol, DMSO, Atplus 411F crop oil concentrate, and Triton X-155 surfactant in a 48.5:39:10:1.5:1.0:0.02 v/v ratio to obtain ½×, ¼×, ⅛× and 1/16× rates of the high rate. Compound requirements are based upon a 12 mL application volume at a rate of 187 L/ha. Formulated compounds were applied to the plant material with an overhead Mandel track sprayer equipped with a 8002E nozzles calibrated to deliver 187 L/ha over an application area of 0.503 square meters at a spray height of 18 inches (43 cm) above the average plant canopy height. Control plants were sprayed in the same manner with the solvent blank.
(§3) The treated plants and control plants were placed in a greenhouse as described above and watered by sub-irrigation to prevent wash-off of the test compounds. After 14 days, the condition of the test plants as compared with that of the untreated plants was determined visually and scored on a scale of 0 to 100 percent where 0 corresponds to no injury and 100 corresponds to complete kill.
(§4) By applying the well-accepted probit analysis as described by J. Berkson in Journal of the […], 48, 565 (1953) and by D. Finney in “Probit Analysis” Cambridge University Press (1952), the above data can be used to calculate GR50 and GR80 values, which are defined as growth reduction factors that correspond to the effective dose of herbicide required to kill or control 50 percent or 80 percent, respectively, of a target plant.

[2] = system: ABUTH = velvetleaf (Abutilon theophrasti); assay: General postemergence herbicidal activity, velvetleaf; assay type: in vivo; conditions: post-emergent, 140 g ai/ha, visual score after 14 days (0 no injury, 100 complete kill); for pest or weed control at 140 g/ha: Abutilon theophrasti, post-emergence, 336 h
Method: as §1, §2, §3, §4

[3] = system: HELAN = sunflower (Helainthus annuus); assay: General postemergence herbicidal activity, sunflower; assay type: in vivo; conditions: post-emergent, 140 g ai/ha, visual score after 14 days (0 no injury, 100 complete kill); for pest or weed control at 140 g/ha: post-emergence, 336 h
Method: as §1, §2, §3, §4

[4] = system: CHEAL = lambsquarter (Chenopodium album); assay: General preemergence herbicidal activity, lambsquarter; assay type: in vivo; conditions: pre-emergent, visual score after 20-22 days
Description: (§5) Seeds of the desired test plant species were planted in a soil matrix prepared by mixing a loam soil (43 percent silt, 19 percent clay, and 38 percent sand, with a pH of about 8.1 and an organic matter content of about 1.5 percent) and sand in a 70 to 30 ratio. The soil matrix was contained in plastic pots with a surface area of 113 square centimeters. When required to ensure good germination and healthy plants, a fungicide treatment and/or other chemical or physical treatment was applied. A weighed amount, determined by the highest rate to be tested, of each test compound was placed in a 25 mL glass vial and was dissolved in 6 mL of a 97:3 v/v (volume/volume) mixture of acetone and DMSO to obtain concentrated stock solutions. […] The stock solutions obtained were diluted with 18 mL of a 0.1% v/v aqueous solution of Tween® 20 surfactant to obtain spray solutions containing the highest application rate. Additional application rates were obtained by serial dilution of 12 mL of the high rate solution into a solution containing 3 mL of 97:3 v/v mixture of acetone and DMSO and 9 mL of the 0.1% v/v aqueous solution of Tween® 20 surfactant to obtain 1⁄2×, 1⁄4×, 1⁄8× and 1/16× rates of the high rate. Compound requirements are based upon a 12 mL application volume at a rate of 187 L/ha. Formulated compounds were applied to the plant material with an overhead Mandel track sprayer equipped with a […] nozzles calibrated to deliver 187 L/ha over an application area of 0.503 square meters at a spray height of 18 inches (43 cm) above the soil surface. Control plants were sprayed in the same manner with the solvent blank. The treated pots and control pots were placed in a greenhouse maintained with an approximate 15 hour photoperiod and temperatures of about 23-29° C. during the day and 22-28° C. during the night. Nutrients and water were added on a regular basis and supplemental lighting was provided with overhead metal halide 1000-Watt lamps as necessary. The water was added by top-irrigation. After 20-22 days, the condition of the test plants that germinated and grew as compared with that of the untreated plants that emerged and grew was determined visually and scored on a scale of 0 to 100 percent where 0 corresponds to no injury and 100 corresponds to complete kill or no emergence.

[5] = system: ABUTH = velvetleaf (Abutilon theophrasti); assay: General preemergence herbicidal activity, velvetleaf; assay type: in vivo; conditions: pre-emergent, visual score after 20-22 days
Description: as §5

[6] = system: HELAN = sunflower (Helianthus annuus); assay: General preemergence herbicidal activity, sunflower; assay type: in vivo; conditions: pre-emergent, visual score after 20-22 days
Description: as §5

[7] = Chenopodium album, pre-emergence, 480 h, 140 g ai/ha
[8] = Abutilon theophrasti, pre-emergence, 480 h, 140 g ai/ha
[9] = Helianthus annuus, pre-emergence, 480 h, 140 g ai/ha

SMILES	pest or weed control at 140 g/ha [1]	pest or weed control at 140 g/ha [2]	pest or weed control at 140 g/ha [3]	pest or weed control at 140 g/ha [4, 7]	pest or weed control at 140 g/ha [5, 8]	pest or weed control at 140 g/ha [6, 9]	melting point	% Control CHEAL [1]	% Control ABUTH [2]	% Control HELAN [3]	% Control CHEAL ([4]; 140 g ai/ha)	% Control ABUTH ([5]; 140 g ai/ha)	% Control HELAN ([6]; 140 g ai/ha)	pest or weed control at 280 g/ha ([4]; Chenopodium album, pre-emergence, 480 h, 280 g ai/ha)	pest or weed control at 280 g/ha ([5]; Abutilon theophrasti, pre-emergence, 480 h, 280 g ai/ha)	pest or weed control at 280 g/ha ([6]; Helianthus annuus, pre-emergence, 480 h, 280 g ai/ha)
COC(=O)c1nc(-c2ccc(Cl)c(C)c2F)nc(N)c1Cl [Compound 11, 6-Amino-5-chloro-2-(4-chloro-2-fluoro-3-methylphenyl)pyrimidine-4-carboxylic acid methyl ester]	95%	95%	100%	60%	100%	100%	166 to 168 °C	–	–	–	–	–	–	–	–	–
COc1c(Cl)ccc(-c2nc(N)c(Cl)c(C(=O)O)n2)c1F [Compound 15, 6-amino-5-chloro-2-(4-chloro-2-fluoro-3-methoxyphenyl)-pyrimidine-4-carboxylic acid]	100%	100%	100%	100%	100%	100%	172 to 173 °C	–	–	–	–	–	–	–	–	–
COc1cc(-c2nc(N)c(Cl)c(C(=O)O)n2)c(F)cc1Cl [Compound 17, 6-Amino-5-chloro-2-(4-chloro-2-fluoro-5-methoxyphenyl)pyrimidine-4-10 carboxylic acid]	–	–	–	–	–	–	–	100%	50%	80%	95%	100%	0%	–	–	–
COc1c(Cl)ccc(-c2nc(N)c(Cl)c(C(=O)O)n2)c1Cl [Compound 18, 6-Amino-5-chloro-2-(2,4-dichloro-3-methoxyphenyl)pyrimidine-4-carboxylic acid]	100%	75%	95%	100%	100%	100%	–	–	–	–	–	–	–	–	–	–
CCOc1c(Cl)ccc(-c2nc(N)c(Cl)c(C(=O)O)n2)c1F [Compound 19, 6-Amino-5-chloro-2-(4-chloro-3-ethoxy-2-fluorophenyl)pyrimidine-4-carboxylic acid]	90%	95%	95%	–	–	–	132 to 134 °C	–	–	–	–	–	–	75%	80%	90%

From US9199943B2, “2-(poly-substituted aryl)-6-amino-5-halo-4-pyrimidinecarboxylic acids and their use as herbicides” (Dow AgroSciences, LLC., priority 2006, dated 2015)
